Experimental data: PubChem BioAssay (NCI)
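Cells were grown in 96-well plates and exposed to each compound for 48 hours at five concentrations; endpoints were interpolated linearly between bracketing concentrations, or set to the highest concentration if not reached. TGI marks complete inhibition of growth.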

How the values were obtained:
Experiment in all cases: inhibition of tumour cell growth, NCI panel, 48 h
[1] = system: CCRF-CEM leukemia
[2] = system: COLO 205 colon
[3] = system: DU-145 prostate
[4] = system: HCT-15 colon
[5] = system: IGROV1 ovarian
[6] = system: MDA-N
[7] = system: SF-539 CNS
[8] = system: SK-MEL-5 melanoma
[9] = system: SK-OV-3 ovarian
[10] = system: UACC-62 melanoma

Structure (SMILES)	TGI [1] [µM]	TGI [2] [µM]	TGI [3] [µM]	TGI [4] [µM]	TGI [5] [µM]	TGI [6] [µM]	TGI [7] [µM]	TGI [8] [µM]	TGI [9] [µM]	TGI [10] [µM]
Cc1cc(C)c(S(=O)(=O)N[C@@H](/C=C(\Br)CO)C(C)C)c(C)c1	90.1	31.8	> 100	> 100	> 100	69.8	> 100	30.5	> 100	28.2
O=C1NCC2(CCNCC2)N1c1ccccc1	> 100	> 100	> 100	> 100	> 100	> 100	> 100	> 100	–	> 100
Cc1cc(S(N)(=O)=O)c(SCc2nc(N)nc(N(C)C)n2)cc1Cl	> 10	> 10	> 10	> 10	> 10	> 10	> 10	> 10	> 10	–
O=C(NCCN1C(=O)CN=C(c2ccc(Cl)cc2)c2cc(Cl)ccc21)OCc1ccccc1	63.1	50.4	37.7	44.6	37.8	31.9	38.2	30.2	> 100	38.7
CC(C)C1CC=NN1C(=O)OC(C)(C)C (stereo not given)	> 100	> 100	> 100	> 100	> 100	> 100	> 100	> 100	> 100	> 100
NS(=O)(=O)c1ccc(NC(=O)c2cc([N+](=O)[O-])cc([N+](=O)[O-])c2)cc1	> 100	51.8	> 100	> 100	79.9	47.2	> 100	> 100	> 100	54.2
Cc1nc(-c2ccccc2)c(C)n2c1nc1ccccc12	> 100	> 100	> 100	74.5	> 100	> 100	> 100	–	46.3	41
O=C(O)c1cccc(S(=O)(=O)NN2C(=O)CSC2c2ccccc2)c1 (stereo not given)	> 100	> 100	> 100	> 100	> 100	> 100	> 100	> 100	> 100	> 100
CC(NC1=CC(=O)c2ncccc2C1=O)C(O)c1ccccc1 (stereo not given)	> 100	29.7	16.6	17.3	16.4	3	19.7	2.6	71.7	–
COc1cc(N(CCC#N)CCC#N)ccc1/C(N=Nc1ccc(C)cc1)=N/NC(=O)c1cc(Br)ccc1O	25.2	29.1	94.7	33	21.9	> 100	> 100	37	> 100	45.1
CCOC(=O)N1CCN(Cc2cc(=O)n3cc(C)ccc3n2)CC1	> 100	> 100	> 100	> 100	> 100	> 100	> 100	–	> 100	> 100
